# Results taken from patent US9255100B2 (BAYER INTELLECTUAL PROPERTY GMBH, priority 2010, dated 2016).
# Biological target: T1, N-terminally GST-tagged human full length recombinant Mps-1 kinase (Homo sapiens, UniProt P33981)
# T1 construct: N-terminally GST-tagged human full length recombinant Mps-1 kinase; purchased Invitrogen, Karslruhe, Germany PV4071
# T1 sequence (P33981 1-857): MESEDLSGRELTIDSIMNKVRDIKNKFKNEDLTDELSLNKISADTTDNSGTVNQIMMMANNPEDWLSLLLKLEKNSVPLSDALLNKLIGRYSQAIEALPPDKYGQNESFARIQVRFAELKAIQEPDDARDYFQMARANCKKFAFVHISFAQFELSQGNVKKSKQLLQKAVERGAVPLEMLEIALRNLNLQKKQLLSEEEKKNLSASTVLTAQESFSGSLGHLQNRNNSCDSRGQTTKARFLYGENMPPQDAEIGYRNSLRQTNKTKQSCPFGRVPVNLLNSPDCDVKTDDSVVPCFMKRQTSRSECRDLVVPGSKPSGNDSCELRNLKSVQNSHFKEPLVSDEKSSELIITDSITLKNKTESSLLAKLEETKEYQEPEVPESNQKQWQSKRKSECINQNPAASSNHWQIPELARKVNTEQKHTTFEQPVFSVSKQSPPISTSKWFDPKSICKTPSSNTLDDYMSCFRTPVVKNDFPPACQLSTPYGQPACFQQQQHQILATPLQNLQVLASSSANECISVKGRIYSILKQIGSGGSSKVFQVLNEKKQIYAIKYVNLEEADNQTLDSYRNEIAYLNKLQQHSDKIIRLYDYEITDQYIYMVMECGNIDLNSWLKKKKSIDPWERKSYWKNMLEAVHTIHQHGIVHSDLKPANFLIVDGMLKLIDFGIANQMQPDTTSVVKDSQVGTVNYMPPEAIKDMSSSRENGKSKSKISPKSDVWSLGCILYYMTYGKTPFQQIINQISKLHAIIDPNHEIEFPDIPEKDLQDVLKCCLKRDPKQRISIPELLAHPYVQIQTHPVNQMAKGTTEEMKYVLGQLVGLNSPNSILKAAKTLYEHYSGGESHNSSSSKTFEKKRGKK
# Test: Mps-1 kinase assay (TR-FRET)
# Assay type: biochemical
# Settings: Mps1 IC50 [nM], 10 μM ATP, 1 μM peptide substrate, 60 min at 22° C.
# Experimental: The human kinase Mps-1 phosphorylates a biotinylated substrate peptide. Detection of the phosphorylated product is achieved by time-resolved fluorescence resonance energy transfer (TR-FRET) from Europium-labelled anti-phospho-Serine/Threonine antibody as donor to streptavidin labelled with cross-linked allophycocyanin (SA-XLent) as acceptor. Compounds are tested for their inhibition of the kinase activity.
# N-terminally GST-tagged human full length recombinant Mps-1 kinase (purchased from Invitrogen, Karslruhe, Germany, cat. no PV4071) was used. As substrate for the kinase reaction a biotinylated peptide of the amino-acid sequence […] (C-terminus in amide form, purchased from Biosynthan GmbH, Berlin) was used.
# The concentration of Mps-1 in the assay was adjusted to the activity of the enzyme lot and was chosen appropriate to have the assay in the linear range, typical enzyme concentrations were in the range of about 1 nM (final conc. in the 5 μl assay volume).
# The resulting mixture was incubated 1 h at 22° C. to allow the binding of the phosphorylated peptide to the anti-phospho(Ser/Thr)-Europium-antibody. Subsequently the amount of phosphorylated substrate was evaluated by measurement of the resonance energy transfer from the Europium-labelled anti-phospho(Ser/Thr) antibody to the Streptavidin-XLent.
row,IC50 [nM],Structure (SMILES)
1,0.2,"Cc1cc(-c2cnc3c(NCC(C)(C)O)cc(Sc4cccc(O)c4)nn23)ccc1C(=O)NC1CC1 [Example 61A, N-cyclopropyl-4-{8-[(2-hydroxy-2-methylpropyl)amino]-6-[(3-hydroxyphenyl)sulfanyl]imidazo[1,2-b]pyridazin-3-yl}-2-methylbenzamide]"
2,0.3,"Cc1cc(-c2cnc3c(NCCC(F)(F)F)cc(Oc4cccc(F)c4N)nn23)ccc1C(=O)NC1CC1 [Example 477, 4-{6-(2-amino-3-fluoro-phenoxy)-8-[(3,3,3-tri-fluoropropyl)amino]imidazo[1,2-b]pyridazin-3-yl}-N-cyclopropyl-2-methylbenzamide]"
3,2.3,"Cc1cc(-c2cnc3c(NCCN(C)C)cc(Oc4cccnc4)nn23)ccc1C(=O)NC1CC1 [Example 524, N-cyclopropyl-4-[8-{[2-(dimethylamino)ethyl]amino}-6-(pyridin-3-yloxy)imidazo [1,2-b]pyridazin-3-yl]-2-methylbenzamide]"
4,52.3,"NS(=O)(=O)CCNc1cc(Cl)nn2c(-c3ccc(C(=O)NC4CC4)cc3)cnc12 [Example 98, 4-{6-Chloro-8-[(2-sulfamoylethyl)amino]imidazo[1,2-b]pyridazin-3-yl}-N-cyclopropylbenzamide]"
5,1.1,"Cc1cc(-c2cnc3c(NC[C@@H]4CCCO4)cc(-c4ccncc4)nn23)ccc1C(=O)NC1CC1 [Example 31, N-cyclopropyl-2-methyl-4-[6-(pyridin-4-yl)-8-{[(2S)-tetrahydrofuran-2-ylmethyl]amino}imidazo[1,2-b]pyridazin-3-yl]benzamide]"
6,< 1,"CCNC(=O)c1ccc(-c2cnc3c(NCCC(F)(F)F)cc(Oc4ccc(OC)cc4F)nn23)cc1C [Example 602, N-ethyl-4-{6-(2-fluoro-4-methoxyphenoxy)-8-[(3,3,3-trifluoropropyl)a-mino]imidazo[1,2-b]pyridazin-3-yl}-2-methylbenzamide]"
7,0.2,"Cc1cc(-c2cnc3c(NCCC(F)(F)F)cc(Nc4cccnc4)nn23)ccc1C(=O)NC1CC1 [Example 439, N-cyclopropyl-2-methyl-4-{6-(pyridin-3-ylamino)-8-[(3,3,3-trifluoropropyl)amino]imidazo[1,2-b]pyridazin-3-yl}benzamide]"
8,2.7,"Cc1cc(-c2cnc3c(NCC(C)(C)O)cc(-c4ccncc4)nn23)ccc1C(=O)NC1CC1 [Example 230, N-cyclopropyl-4-{8-[(2-hydroxy-2-methylpropyl)amino]-6-(pyridin-4-yl)imidazo[1,2-b]pyridazin-3-yl}-2-methylbenzamide]"
9,6.9,"Cc1cc(-c2cnc3c(NCCCC(C)O)cc(-c4ccccc4CO)nn23)ccc1C(=O)NC1CC1 (racemic) [Example 342, (RS)-N-cyclopropyl-4-{6-[2-(hydroxy-methyl)phenyl]-8-[(4-hydroxy-pentyl)amino]imidazo[1,2-b]pyridazin-3-yl}-2-methylbenzamide]"
10,3,"Cc1cc(-c2cnc3c(NCC4CCOC4)cc(-c4ccccc4CO)nn23)ccc1C(=O)NC1CC1 (racemic) [Example 345, (RS)-N-cyclopropyl-4-{6-[2-(hydroxy-methyl)phenyl]-8-[(tetrahydro-furan-3-ylmethyl)amino]imidazo [1,2-b]pyridazin-3-yl}-2-methyl-benzamide]"
11,0.8,"Cc1cc(-c2cnc3c(NCC(C)(C)O)cc(Sc4ccc(F)cc4)nn23)ccc1C(=O)NC1CC1 [Example 71, N-cyclopropyl-4-{6-[(4-fluorophenyl)sulfanyl]-8-[(2-hydroxy-2-methylpropyl)amino]imidazo[1,2-b]pyridazin-3-yl}-2-methylbenzamide]"
12,2.6,"Cc1cc(-c2cnc3c(NCC(C)C)cc(S(=O)(=O)c4ccccc4)nn23)ccc1C(=O)NC1CC1 [Example 198, N-cyclopropyl-2-methyl-4-{8-[(2-methylpropyl)amino]-6-(phenylsulfonyl)imidazo[1,2-b]pyridazin-3-yl}benzamide]"
13,3.8,"CNC(=O)Nc1ccc(-c2cc(NCC(C)C)c3ncc(-c4ccc(C(=O)NC5CC5)cc4)n3n2)cc1 [Example 146, N-cyclopropyl-4-(6-{4-[(methylcarbamoyl)amino]phenyl}-8-[(2-methylpropyl)amino]imidazo[1,2-b]pyridazin-3-yl)benzamide]"
14,0.2,"Cc1cc(-c2cnc3c(NCCC(F)(F)F)cc(S(=O)(=O)c4cccc(F)c4)nn23)ccc1C(=O)NC1CC1 [Example 83A, N-cyclopropyl-4-{6-[(3-fluorophenyl)sulfonyl]-8-[(3,3,3-trifluoropropyl)amino]imidazo[1,2-b]pyridazin-3-yl}-2-methylbenzamide]"
15,0.2,"Cc1cc(-c2cnc3c(NCCC(F)(F)F)cc(Nc4ccc(CCO)cc4)nn23)ccc1C(=O)NC1CC1 [Example 427, N-cyclopropyl-4-(6-{[4-(2-hydroxyethyl)phenyl]amino}-8-[(3,3,3-trifluoropropyl)amino]imidazo[1,2-b]pyridazin-3-yl)-2-methylbenzamide]"
16,3.1,"Cc1cc(-c2cnc3c(NCCC(F)(F)F)cc(Nc4ccncc4O)nn23)ccc1C(=O)NC1CC1 [Example 481, N-cyclopropyl-4-{6-[(3-hydroxypyridin-4-yl)amino]-8-[(3,3,3-tri-fluoropropyl)amino]imidazo[1,2-b]pyridazin-3-yl}-2-methylbenzamide]"
17,0.2,"Cc1cc(-c2cnc3c(NCCCN4CCCC4)cc(Oc4cccc(F)c4)nn23)ccc1C(=O)NC1CC1 [Example 507, N-cyclopropyl-4-[6-(3-fluoro-phenoxy)-8-{[3-(pyrrolidin-1-yl)propyl]amino}imidazo[1,2-b]pyridazin-3-yl]-2-methyl-benzamide]"
18,7.6,"CC(C)CNc1cc(-c2ccc(C(F)(F)F)cc2)nn2c(-c3ccc(C(=O)NC4CC4)cc3)cnc12 [Example 123, N-cyclopropyl-4-{8-[(2-methylpropyl)amino]-6-[4-(trifluoromethyl)phenyl]imidazo[1,2-b]pyridazin-3-yl}benzamide]"
19,0.6,"Cc1cc(-c2cnc3c(NCC4CCN(C)CC4)cc(Oc4cccnc4)nn23)ccc1C(=O)NC1CC1 [Example 527, N-cyclopropyl-2-methyl-4-[8-{[(1-methylpiperidin-4-yl)methyl]amino}-6-(pyridin-3-yloxy)imidazo [1,2-b]pyridazin-3-yl]benzamide]"
20,0.3,"Cc1cc(-c2cnc3c(NCC(C)(C)O)cc(Oc4ccc(Cl)c(F)c4)nn23)ccc1C(=O)NC1CC1 [Example 95, 4-{6-(4-Chloro-3-fluorophenoxy)-8-[(2-hydroxy-2-methylpropyl)amino]imidazo[1,2-b]pyridazin-3-yl}-N-cyclopropyl-2-methylbenzamide]"
21,4.4,"Cc1cc(-c2cnc3c(NCC(C)(C)O)cc(Nc4ccccn4)nn23)ccc1C(=O)NC1CC1 [Example 357, N-cyclopropyl-4-{8-[(2-hydroxy-2-methylpropyl)amino]-6-(pyridin-2-ylamino)imidazo[1,2-b]pyridazin-3-yl}-2-methylbenzamide]"
22,32.4,"Cc1cc(-c2cnc3c(NCC(C)(C)O)cc(O[C@H]4CCNC4=O)nn23)ccc1C(=O)NC1CC1 [Example 263, N-cyclopropyl-4-(8-[(2-hydroxy-2-methylpropyl)amino]-6-{[(3S)-2-oxopyrrolidin-3-yl]oxy}imidazo[1,2-b]pyridazin-3-yl)-2-methylbenzamide]"
23,6.1,"Cc1cc(-c2cnc3c(NCC(C)(C)O)cc(-c4cncc(C#N)c4)nn23)ccc1C(=O)NC1CC1 [Example 234, 4-{6-(5-cyanopyridin-3-yl)-8-[(2-hydroxy-2-methylpropyl)amino]imidazo[1,2-b]pyridazin-3-yl}-N-cyclopropyl-2-methylbenzamide]"
24,3.7,"Cc1cc(-c2cnc3c(NCC(C)(C)O)cc(Sc4ccc(C(F)(F)F)cc4)nn23)ccc1C(=O)NC1CC1 [Example 242, N-cyclopropyl-4-(8-[(2-hydroxy-2-methylpropyl)amino]-6-{[4-(trifluoromethyl)phenyl]sulfanyl}imidazo[1,2-b]pyridazin-3-yl)-2-methylbenzamide]"
